These results are taken from patent publication US20110137633A1, “ANTI-VIRAL COMPOUNDS AND METHODS OF IDENTIFYING THE SAME” (ABBOTT LABORATORIES, priority 2009, published 2011).

One experiment has as its system HCV 1a replicon. In words: HCV 1a replicon assay (luciferase reporter). To be noted: in vitro, relative to compound of FIG. 2A. The format is cell-based, Hepatitis C virus genotype 1a-H77. Background: In antiviral work, replicon cells carry a viral genome segment that copies itself.
For another experiment, the system named is HCV 1b replicon. In words: HCV 1b replicon assay (luciferase reporter). The format is cell-based, Hepatitis C virus genotype 1b-Con1. To be noted: in vitro, relative to compound of FIG. 2A.

The structures appear in SMILES notation.

Turning to `CC(C)c1ccc2c(Nc3cc(C(=O)N[C@@H](C)c4ccccc4)ccc3Sc3ccc(N)cc3)ncnc2n1` [compound of FIG. 2B], the “increase in HCV replication inhibitory activities compared to the compound of FIG. 2A” value was “over 1,000 fold” in the experiment on HCV 1a replicon and “over 600 fold” in the experiment with HCV 1b replicon.
